Values of other authors in patent US8722114B2, “Compositions and methods for increasing human growth hormone levels” (Quality IP Holdings, LLC, priority 2012, dated 2014).

What was measured:
[1] = subcutaneous injection of 0.06 IU, GH deficient subjects

Compound | Elevation of serum hGH levels (hGH; 30 g, intravenous, in males) | Increase of hGH levels (hGH; intravenous infusion of 183 mg/kg body weight in females) | Mean levels of GH reached [1]
N=C(N)NCCC[C@H](N)C(=O)O [arginine] | 8.6 fold | > 20 fold | 
HGH: human growth hormone, injected subcutaneously in a cited study |  |  | 0.4 ng/mL
